PubChem BioAssay AID2060903 (Molecular Pharmacology Branch, DTP, NCI, 2025)
Values belong to the compound of their own block, whether it stands above or below them.

Test system: 377384-186-R-J1-PDC complex spheroid viability
Experiment: Anticancer human tumor 377384-186-R-J1-PDC patient-derived pancreatic carcinoma cell line growth inhibition [RAS]
Settings: for IC50: curve of first compound; for viability, T/C: stronger effect = lower value
In short: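 Multi-cell-type spheroids: tumor cells plus HUVEC endothelial cells and mesenchymal stem cells. RAS-pathway inhibitors were combined with targeted agents, each dosed in half-log steps down from clinical Cmax, or from 10 microM when Cmax was unknown.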

[1] = second compound 0.00316 µM, first compound 0.0316 µM
[2] = second compound 0.00316 µM, first compound 0.1 µM
[3] = second compound 0.00316 µM, first compound 0.316 µM
[4] = second compound 0.00316 µM, first compound 1 µM
[5] = second compound 0.00316 µM, first compound 3.16 µM
[6] = second compound 0.00316 µM, first compound 10 µM
[7] = second compound 0.01 µM, first compound 0.0316 µM
[8] = second compound 0.01 µM, first compound 0.1 µM
[9] = second compound 0.01 µM, first compound 0.316 µM
[10] = second compound 0.01 µM, first compound 1 µM
[11] = second compound 0.01 µM, first compound 3.16 µM
[12] = second compound 0.01 µM, first compound 10 µM
[13] = second compound 0.0316 µM, first compound 0.0316 µM
[14] = second compound 0.0316 µM, first compound 0.1 µM
[15] = second compound 0.0316 µM, first compound 0.316 µM
[16] = second compound 0.0316 µM, first compound 1 µM
[17] = second compound 0.0316 µM, first compound 3.16 µM
[18] = second compound 0.0316 µM, first compound 10 µM
[19] = second compound 0.1 µM, first compound 0.0316 µM
[20] = second compound 0.1 µM, first compound 0.1 µM
[21] = second compound 0.1 µM, first compound 0.316 µM
[22] = second compound 0.1 µM, first compound 1 µM
[23] = second compound 0.1 µM, first compound 3.16 µM
[24] = second compound 0.1 µM, first compound 10 µM
[25] = second compound 0.316 µM, first compound 0.0316 µM
[26] = second compound 0.316 µM, first compound 0.1 µM
[27] = second compound 0.316 µM, first compound 0.316 µM
[28] = second compound 0.316 µM, first compound 1 µM
[29] = second compound 0.316 µM, first compound 3.16 µM
[30] = second compound 0.316 µM, first compound 10 µM
[31] = second compound 1 µM, first compound 0.0316 µM
[32] = second compound 1 µM, first compound 0.1 µM
[33] = second compound 1 µM, first compound 0.316 µM
[34] = second compound 1 µM, first compound 1 µM
[35] = second compound 1 µM, first compound 3.16 µM
[36] = second compound 1 µM, first compound 10 µM
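Also: spheroids exposed to compounds for seven days before readout.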

IC50 (second compound 0.00316 µM): < 0.0316 µM | IC50 (second compound 0.01 µM): < 0.0316 µM | IC50 (second compound 0.0316 µM): < 0.0316 µM | IC50 (second compound 0.1 µM): < 0.0316 µM | IC50 (second compound 0.316 µM): < 0.0316 µM | IC50 (second compound 1 µM): < 0.0316 µM
SMILES: CC(=O)OC12COC1CC(O)C1(C)C(=O)C(O)C3=C(C)C(OC(=O)C(O)C(NC(=O)OC(C)(C)C)c4ccccc4)CC(O)(C(OC(=O)c4ccccc4)C21)C3(C)C (centres undefined) + C=CC(=O)N1CCN(c2nc(OCC3CCCN3C)nc3c(F)c(-c4nc(N)cc(C)c4C(F)(F)F)c(Cl)cc23)C(C)C1
viability, T/C [1]: 9.92% | viability, T/C [2]: 11.3% | viability, T/C [3]: 8.82% | viability, T/C [4]: 12.3% | viability, T/C [5]: 11.7% | viability, T/C [6]: 14.2% | viability, T/C [7]: 8.32% | viability, T/C [8]: 8.59% | viability, T/C [9]: 9.28% | viability, T/C [10]: 10.8% | viability, T/C [11]: 14.4% | viability, T/C [12]: 11.4% | viability, T/C [13]: 8.72% | viability, T/C [14]: 8.61% | viability, T/C [15]: 9.75% | viability, T/C [16]: 12.3% | viability, T/C [17]: 13.2% | viability, T/C [18]: 14% | viability, T/C [19]: 9.31% | viability, T/C [20]: 9.36% | viability, T/C [21]: 9.95% | viability, T/C [22]: 12.9% | viability, T/C [23]: 12.4% | viability, T/C [24]: 9.63% | viability, T/C [25]: 9.62% | viability, T/C [26]: 7.81% | viability, T/C [27]: 8.61% | viability, T/C [28]: 10.3% | viability, T/C [29]: 13.6% | viability, T/C [30]: 14.5% | viability, T/C [31]: 9.06% | viability, T/C [32]: 11.8% | viability, T/C [33]: 13.3% | viability, T/C [34]: 12.9% | viability, T/C [35]: 12.3% | viability, T/C [36]: 14.5%

IC50 (second compound 0.00316 µM): > 10 µM | IC50 (second compound 0.01 µM): > 10 µM | IC50 (second compound 0.0316 µM): > 10 µM | IC50 (second compound 0.1 µM): > 10 µM | IC50 (second compound 0.316 µM): > 10 µM | IC50 (second compound 1 µM): > 10 µM
SMILES: Cc1nc(N2CCC3(CC2)COC(C)C3N)c(CO)nc1Sc1ccnc(N)c1Cl (centres undefined) + C=CC(=O)N1CCN(c2nc(OCC3CCCN3C)nc3c(F)c(-c4nc(N)cc(C)c4C(F)(F)F)c(Cl)cc23)C(C)C1
viability, T/C [1]: 94.2% | viability, T/C [2]: 77% | viability, T/C [3]: 84% | viability, T/C [4]: 80.4% | viability, T/C [5]: 70% | viability, T/C [6]: 67% | viability, T/C [7]: 90.9% | viability, T/C [8]: 85.9% | viability, T/C [9]: 81% | viability, T/C [10]: 74.7% | viability, T/C [11]: 79.1% | viability, T/C [12]: 77.8% | viability, T/C [13]: 91.1% | viability, T/C [14]: 80.7% | viability, T/C [15]: 72.4% | viability, T/C [16]: 80.4% | viability, T/C [17]: 79.2% | viability, T/C [18]: 78.4% | viability, T/C [19]: 84.4% | viability, T/C [20]: 82.7% | viability, T/C [21]: 70.7% | viability, T/C [22]: 76% | viability, T/C [23]: 80.1% | viability, T/C [24]: 74.6% | viability, T/C [25]: 91.8% | viability, T/C [26]: 87% | viability, T/C [27]: 76.5% | viability, T/C [28]: 79.3% | viability, T/C [29]: 75.7% | viability, T/C [30]: 69.8% | viability, T/C [31]: 84.1% | viability, T/C [32]: 91.2% | viability, T/C [33]: 81.7% | viability, T/C [34]: 73.6% | viability, T/C [35]: 78.4% | viability, T/C [36]: 79.8%
